Assays:
[1] = test system: pathogenic bacteria causing bacterial wilt in cassava; experiment: organism not typed; assay type: cell-based; settings: read-out: inhibitory rate
[2] = test system: pathogenic bacteria causing fire blight in pears; experiment: In vitro bactericidal activity, fire blight in pears; assay type: cell-based, erwinia; settings: Erwinia, read-out: inhibitory rate; for inhibition at 1 ppm: dosage 1 ppm; for inhibition at 5 ppm: dosage 5 ppm
Procedure: (§1) Under aseptic conditions, equal amounts of NB culture medium were added to test tubes, and fixed amounts of the sample solutions were pipetted into the above test tubes in an ascending order of concentrations, respectively. The mixtures were well mixed and added with equal amounts of a bacterial suspension in log phase.
(§2) Each step of the procedure was repeated 4 times. After mixing, the mixture samples were incubated in the dark in a shaking incubator at 25° C. The OD values were measured when the bacteria were in log phase.

[3] = test system: pathogenic bacteria causing bacterial blight in rice; experiment: whole plant or invertebrate; assay type: cell-based, xanthomonas; settings: read-out: inhibitory rate
[4] = test system: soft rot in Chinese cabbages; experiment: whole plant or invertebrate; settings: 48 h, read-out: efficacy against soft rot in Chinese cabbages
[5] = test system: pathogenic bacteria causing fruit blotch in watermelons; experiment: In vitro bactericidal activity, fruit blotch in watermelons; assay type: cell-based, acidovorax; settings: read-out: inhibitory rate; for inhibition at 1 ppm: dosage 1 ppm; for inhibition at 5 ppm: dosage 5 ppm
Procedure: as §1, §2

[6] = test system: bacterial wilt in tobacco; experiment: whole plant or invertebrate; settings: Nicotiana tabacum, read-out: efficacy against bacterial wilt in tobacco
[7] = test system: pathogenic bacteria causing stem rot in sweet potatoes; experiment: In vitro bactericidal activity, stem rot in sweet potatoes; assay type: cell-based, dikia; settings: read-out: inhibitory rate; for inhibition at 1 ppm: dosage 1 ppm; for inhibition at 5 ppm: dosage 5 ppm
Procedure: as §1, §2

cucumber seedlings = experiment: Safety for plant growth after application; assay type: in vivo; settings: dosage 200 ppm
Description: (§3) Taking indoor potted cucumber seedlings as an example, the influence of the compound disclosed herein on growth rate of plant height, chlorophyll content, leaf area, etc. of crops was mainly evaluated.
The results of safety and health-care effect of the compounds of the present disclosure on cucumber seedlings are shown in the following table 1: […]

bacterial blight in rice = experiment: whole plant or invertebrate; settings: Oryza sativa, read-out: efficacy against bacterial blight in rice
black shank in potatoes = experiment: Living crops in vivo protective activity, potatoes (root irrigation); settings: Solanum tuberosum, read-out: efficacy against black shank in potatoes; for pest or weed control at 5 ppm: dosage 5 ppm; for pest or weed control at 10 ppm: dosage 10 ppm
Procedure: Root irrigation was carried out on the potatoes for tests according to the designed concentration of the agents. The dosage for each plant was 200 mL and was kept consistent (also for the control). The black shank bacteria were inoculated on the second day after the application. The results were investigated according to the disease condition.

[8] = test system: fruit blotch in watermelons; experiment: whole plant or invertebrate; settings: read-out: efficacy against fruit blotch in watermelons
[9] = test system: indoor potted cucumber seedlings; experiment: Effect of improving growth and development of crops; assay type: in vivo; design: Rate of growth rate increase (%): concentration or dose not given beside the values; settings: versus blank control; for Rate of chlorophyll content increase (%) / Rate of leaf area increase (%): 14 days after application; for Rate of growth rate increase (%): plant height 14 days after application; for Rate of leaf area increase (%): second leaf
Procedure: as §3
The plant heights of plants before application and 14 days after the application were measured.
The growth rates were calculated according to formula (1)
The rates of the growth rate increase (%) were calculated according to formula (2)
The longitudinal and transverse diameters (i.e., leaf length and leaf width, respectively, wherein the leaf length is the distance from the base to the tip of a leaf, and leaf width is the measured value of the upper shoulder width of the leaf) of the second leaf of plants before application and 14 days after the application were measured.
The leaf areas were calculated according to formula (3)
The leaf area increases were calculated according to formula (4)
The rates of the leaf area increases were calculated according to formula (5)
The chlorophyll contents of leaves were measured by using a chlorophyll measuring instrument (model: SPAD-520 Plus).
The chlorophyll content increases were calculated according to formula (6)
The rates of the chlorophyll content increases were calculated according to formula (7)

[10] = test system: pathogenic bacteria causing bacterial angular leaf spot in cucumbers; experiment: In vitro bactericidal activity, bacterial angular leaf spot in cucumbers; assay type: cell-based, pseudomonas; settings: read-out: inhibitory rate; for inhibition at 1 ppm: dosage 1 ppm; for inhibition at 5 ppm: dosage 5 ppm
Procedure: as §1, §2

[11] = test system: pathogenic bacteria causing black rot in Chinese cabbages; experiment: In vitro bactericidal activity, black rot in Chinese cabbages; assay type: cell-based, xanthomonas; settings: Xanthomonas, read-out: inhibitory rate; for inhibition at 1 ppm: dosage 1 ppm; for inhibition at 5 ppm: dosage 5 ppm
Procedure: as §1, §2

[12] = test system: pathogenic bacteria causing bacterial wilt in tobacco; experiment: whole plant or invertebrate; assay type: cell-based, ralstonia; settings: read-out: inhibitory rate
[13] = test system: stem rot in sweet potatoes; experiment: whole plant or invertebrate; settings: read-out: efficacy against stem rot in sweet potatoes
[14] = test system: pathogenic bacteria causing black shank in potatoes; experiment: In vitro bactericidal activity, black shank in potatoes; assay type: cell-based; settings: read-out: inhibitory rate; for inhibition at 1 ppm: dosage 1 ppm; for inhibition at 5 ppm: dosage 5 ppm
Procedure: as §1, §2

Row | Compound | inhibition at 1 ppm [1] [%] | inhibition at 5 ppm [1] [%] | inhibition at 1 ppm [2] [%] | inhibition at 5 ppm [2] [%] | inhibition at 1 ppm [3] [%] | inhibition at 5 ppm [3] [%] | pest or weed control at 5 ppm [4] [%] | pest or weed control at 10 ppm [4] [%] | inhibition at 1 ppm [5] [%] | inhibition at 5 ppm [5] [%] | pest or weed control at 5 ppm [6] [%] | pest or weed control at 10 ppm [6] [%] | inhibition at 1 ppm [7] [%] | inhibition at 5 ppm [7] [%] | safety for plant growth (discoloration, necrosis, wilt, malformation) (cucumber seedlings) | pest or weed control at 5 ppm (bacterial blight in rice) [%] | pest or weed control at 10 ppm (bacterial blight in rice) [%] | pest or weed control at 5 ppm (black shank in potatoes) [%] | pest or weed control at 10 ppm (black shank in potatoes) [%] | pest or weed control at 5 ppm [8] [%] | also measured
1 | CCOCCOC(=O)c1cn(C2CC2)c2cc(OC)c(F)cc2c1=O [Compound 326] | ≥ 90 | ≥ 90 | ≥ 90 | ≥ 90 | ≥ 90 | ≥ 90 | ≥ 90 | ≥ 90 | ≥ 90 | ≥ 90 | ≥ 90 | ≥ 90 | ≥ 90 | ≥ 90 | safe for plant growth | ≥ 90 | ≥ 90 | ≥ 90 | ≥ 90 | ≥ 90 | pest or weed control at 10 ppm [8]: ≥ 90%; Rate of chlorophyll content increase (%) [9]: 15%; Rate of growth rate increase (%) [9]: 13%; Rate of leaf area increase (%) [9]: 15%; inhibition at 1 ppm [10]: ≥ 90%; inhibition at 5 ppm [10]: ≥ 90%; inhibition at 1 ppm [11]: ≥ 90%; inhibition at 5 ppm [11]: ≥ 90%; inhibition at 1 ppm [12]: ≥ 90%; inhibition at 5 ppm [12]: ≥ 90%; pest or weed control at 5 ppm [13]: ≥ 90%; pest or weed control at 10 ppm [13]: ≥ 90%; inhibition at 1 ppm [14]: ≥ 90%; inhibition at 5 ppm [14]: ≥ 90%
2 | COCCOC(=O)c1cn(C2CC2)c2cc(OCC(F)(F)F)c(F)cc2c1=O [Compound 292, 2-methoxyethyl 1-cyclopropyl-6-fluoro-4-oxo-7-(2,2,2-trifluoroethoxy)-1,4-dihydroquinoline-3-carboxylate] | ≥ 90 | ≥ 90 | ≥ 90 | ≥ 90 | ≥ 90 | ≥ 90 | ≥ 90 | ≥ 90 | ≥ 90 | ≥ 90 | ≥ 90 | ≥ 90 | ≥ 90 | ≥ 90 | safe for plant growth | ≥ 90 | ≥ 90 | ≥ 90 | ≥ 90 | ≥ 90 | pest or weed control at 10 ppm [8]: ≥ 90%; Rate of chlorophyll content increase (%) [9]: 16%; Rate of growth rate increase (%) [9]: 15%; Rate of leaf area increase (%) [9]: 15%; inhibition at 1 ppm [10]: ≥ 90%; inhibition at 5 ppm [10]: ≥ 90%; inhibition at 1 ppm [11]: ≥ 90%; inhibition at 5 ppm [11]: ≥ 90%; inhibition at 1 ppm [12]: ≥ 90%; inhibition at 5 ppm [12]: ≥ 90%; pest or weed control at 5 ppm [13]: ≥ 90%; pest or weed control at 10 ppm [13]: ≥ 90%; inhibition at 1 ppm [14]: ≥ 90%; inhibition at 5 ppm [14]: ≥ 90%
3 | COCCCCOC(=O)c1cn(C2CC2)c2cc(Cl)c(F)cc2c1=O [Compound 178] | ≥ 90 | ≥ 90 | ≥ 90 | ≥ 90 | ≥ 90 | ≥ 90 | ≥ 90 | ≥ 90 | ≥ 90 | ≥ 90 | ≥ 90 | ≥ 90 | ≥ 90 | ≥ 90 | safe for plant growth | ≥ 90 | ≥ 90 | ≥ 80 | ≥ 90 | ≥ 90 | pest or weed control at 10 ppm [8]: ≥ 90%; Rate of chlorophyll content increase (%) [9]: 15%; Rate of growth rate increase (%) [9]: 9%; Rate of leaf area increase (%) [9]: 9%; inhibition at 1 ppm [10]: ≥ 90%; inhibition at 5 ppm [10]: ≥ 90%; inhibition at 1 ppm [11]: ≥ 90%; inhibition at 5 ppm [11]: ≥ 90%; inhibition at 1 ppm [12]: ≥ 90%; inhibition at 5 ppm [12]: ≥ 90%; pest or weed control at 5 ppm [13]: ≥ 90%; pest or weed control at 10 ppm [13]: ≥ 90%; inhibition at 1 ppm [14]: ≥ 80%; inhibition at 5 ppm [14]: ≥ 90%
4 | CCOc1cc2c(cc1F)c(=O)c(C(=O)OCCOC(C)C)cn2C1CC1 [Compound 300] | ≥ 90 | ≥ 90 | ≥ 90 | ≥ 90 | ≥ 90 | ≥ 90 | ≥ 90 | ≥ 90 | ≥ 90 | ≥ 90 | ≥ 90 | ≥ 90 | ≥ 90 | ≥ 90 | safe for plant growth | ≥ 90 | ≥ 90 | ≥ 90 | ≥ 90 | ≥ 90 | pest or weed control at 10 ppm [8]: ≥ 90%; inhibition at 1 ppm [10]: ≥ 90%; inhibition at 5 ppm [10]: ≥ 90%; inhibition at 1 ppm [11]: ≥ 90%; inhibition at 5 ppm [11]: ≥ 90%; inhibition at 1 ppm [12]: ≥ 90%; inhibition at 5 ppm [12]: ≥ 90%; pest or weed control at 5 ppm [13]: ≥ 90%; pest or weed control at 10 ppm [13]: ≥ 90%; inhibition at 1 ppm [14]: ≥ 90%; inhibition at 5 ppm [14]: ≥ 90%
5 | CCOCCOC(=O)c1cn(C2CC2)c2cc(SCC)c(F)cc2c1=O [Compound 397] | ≥ 90 | ≥ 90 | ≥ 80 | ≥ 90 | ≥ 90 | ≥ 90 | ≥ 80 | ≥ 90 | ≥ 90 | ≥ 90 | ≥ 90 | ≥ 90 | ≥ 90 | ≥ 90 | safe for plant growth | ≥ 90 | ≥ 90 | ≥ 90 | ≥ 90 | ≥ 90 | pest or weed control at 10 ppm [8]: ≥ 90%; inhibition at 1 ppm [10]: ≥ 90%; inhibition at 5 ppm [10]: ≥ 90%; inhibition at 1 ppm [11]: ≥ 80%; inhibition at 5 ppm [11]: ≥ 90%; inhibition at 1 ppm [12]: ≥ 90%; inhibition at 5 ppm [12]: ≥ 90%; pest or weed control at 5 ppm [13]: ≥ 90%; pest or weed control at 10 ppm [13]: ≥ 90%; inhibition at 1 ppm [14]: ≥ 90%; inhibition at 5 ppm [14]: ≥ 90%
